What was measured:
Human sdLDL particles = experiment: Kinetic model of MDA formation in sdLDL oxidation (Example 15); type: biochemical
Description: Human sdLDL particles were isolated and incubated in vitro with vehicle or with varying concentrations of EPA, DHA, or EPA and DHA. Once incubated, copper sulfate (CuSO4) was added to induce oxidation of the sdLDL particles. The sdLDL particles were then assayed for the detection of malondialdehyde (MDA), a known marker of oxidation.
Various kinetic models were evaluated and eventually fit to the sdLDL oxidation data to describe the concentration of MDA in each sample. Both population parameter estimates and associated variabilities were generated for the formation of MDA (Kf) and degradation of MDA (Ke) rates.
The final kinetic model is a 1 compartment model having a first order Ke and an additive first order Kf.

[1] = LOOH formation in membrane vesicles, EPA dose dependence (Example 18); type: biochemical; details: after four hours
Excerpt: Iodometric analyses were used to measure LOOH formation in membrane vesicles reconstituted as binary mixtures of cholesterol and dilinoleoyl phosphatidylcholine.

[2] = LOOH formation in membrane vesicles, fatty acid comparison (Example 16); type: biochemical; details: 5 μM
Description: Iodometric approaches were used to measure in vitro LOOH formation in membrane vesicles reconstituted as binary mixtures of cholesterol and dilinoleoyl phosphatidylcholine. Vesicles were prepared at a cholesterol-to-phospholipid mole ratio of 0.6:1 and subjected to autoxidation (e.g., lipid oxidation) at 37° C. Lipid oxidation was stimulated with 0.1 μM copper sulfate for 48 hours. All FAs were delivered at 5 and 10 μM.

human sdLDL = experiment: Copper-induced sdLDL oxidation with fatty acids, TBARS/MDA (Example 14); type: biochemical; details: 1.0 μM
Description: Venous blood was collected from healthy volunteers into vacutainer tubes. Plasma was separated by centrifugation at 3000 g for 25 min at 4° C. and adjusted to a density of 1.020 g/mL with KBr. sdLDL was isolated from the plasma of healthy volunteers by iodixanol density gradient ultracentrifugation and adjusted to a final apolipoprotein concentration of 2 mg/mL. An aliquot of sdLDL (50 μL) was incubated with either 10 μL vehicle (ethanol) or 10 μL FA (EPA, ETE, AA, EA, DHA, DPA, ALA, LA or SA) treatment stock solution (100 μM) for 30 min at 37° C. Oxidation was initiated with addition of initiator CuSO4 (10.0 μM). At certain time points (0, 40, 60, and 120 minutes), […] were removed from each subfraction and combined with 1.0 mL thiobarbituric acid (0.5%), 10 μL trichloroacetic acid (10%), 10 μL butylated hydroxytoluene (BHT; 35 mM in ethanol), and 10 μL ethylenediaminetetraacetic acid (EDTA; 5 mM). Sample aliquots were incubated at 100° C. for 30 min and then assayed for the formation of thiobarbituric acid reactive substances (TBARS), which have a molar absorptivity (ε) value of 1.56×105 M^−1 cm^−1 at 532 nm and are largely derived from the reaction of thiobarbituric acid with MDA, a reactive aldehyde produced by sdLDL oxidation. Sample TBARS concentrations were determined spectrophotometrically by measuring sample absorbances against a standard curve derived from the hydrolysis of 1,1,3,3-tetramethoxypropane.

HUVECs [3] = experiment: NO release from HUVECs incubated with treated, oxidized sdLDL (Example 12); type: cell-based, human; details: sdLDL treated at 10.0 μM
Description: All samples, with the exception of non-oxidized sdLDL controls, were subjected to copper-induced oxidation for 1 hour. Human umbilical vein endothelial cells (HUVECs) were incubated with the various sdLDL samples, stimulated with calcium, and monitored for nitric oxide (NO) and peroxynitrite (ONOO^−) release using nanosensor technology.

HUVECs [4] = experiment: NO and ONOO^− release from HUVECs exposed to oxLDL, nanosensors (Example 8); type: cell-based, human; details: ECs exposed to oxLDL; compared to vehicle
Description: Human umbilical vein endothelial cells (HUVECs) were isolated into primary cultures from female donors by Clonetics (San Diego, Calif.) and purchased as proliferating cells. All cell culture donors were healthy, with no pregnancy or prenatal complications. […] The confluent cells (4 to 5×10^5 cells/35 mm dish) were placed with minimum essential medium containing 3 mM L-arginine and 0.1 mM BH4 [(6R)-5,6,7,8-tetrahydrobiopterin]. Before experimental use, the cells (from second or third passage) were rinsed twice with Tyrode-HEPES buffer with 1.8 mM CaCl2.
Plasma was immediately separated by centrifugation at 3,000 g for 10 minutes at 4° C.
Tris-NaCl buffer was added to the dialyzed LDL to adjust the protein concentration to 30 mg/mL. A 1-mL aliquot of 20 μM CuSO4 was added to 1 mL of dialyzed normal LDL.
Concurrent measurements of NO and ONOO^− were performed with tandem electrochemical nanosensors combined into one working unit with a total diameter of 200-400 nm. Their design was based on previously developed and chemically modified carbon-fiber technology. […]
The amperometric method (with a response time of 0.1 ms) provides a quantitative signal (current) that is directly proportional to changes (from basal levels) in NO or ONOO^− concentration. […] Basal NO or ONOO^− levels were measured by differential pulse voltammetry in separate experiments. […]

## CC/C=C\C/C=C\C/C=C\C/C=C\C/C=C\CCCC(=O)O [EPA, cis-5,8,11,14,17-eicosapentaenoic acid]
Human sdLDL particles; 5 μM, after 8 hours
  reduction of Kf (formation rate of MDA): 54%
Human sdLDL particles; 10 μM alone, predicted
  reduction of Kf predicted by the kinetic model: 73%
[1]; 1.0 μM, 10 μM copper sulfate
  inhibition of LOOH formation: 6%
[1]; read-out: half-maximum concentration of LOOH inhibition
  IC50: ~6 µM
[1]; maximum concentration (range 1.0 to 10.0 μM)
  inhibition of LOOH formation: 74%
[2]
  activity of EPA greater than ALA by: 213%
  activity of EPA greater than DHA by: 279%
  activity of EPA greater than DPA by: 121%
  activity of EPA greater than ETE by: 174%
[2]; 0.1 μM copper sulfate, 48 hours
  reduction of LOOH levels compared to the vehicle: 77%
Human sdLDL; 40 minutes
  inhibition of lipoprotein oxidation versus vehicle: 70%
Human sdLDL; 60 minutes
  inhibition of oxidation compared to vehicle: 44%
Human sdLDL; time point 0 min
  MDA Equivalents (Mean ± SD): 0.30 ± 0.04 µM
Human sdLDL; time point 40 min
  MDA Equivalents (Mean ± SD): 3.14 ± 0.19 µM
Human sdLDL; time point 60 min
  MDA Equivalents (Mean ± SD): 6.42 ± 0.24 µM
Human sdLDL; time point 120 min
  MDA Equivalents (Mean ± SD): 12.46 ± 0.75 µM
HUVECs [3]
  increase of NO release compared to non-oxidized sdLDL: 23%
  increase of NO release compared to oxidized LDL: 53%
HUVECs [4]
  increase in NO release: 45%

— patent US20190209506A1, “METHODS OF REDUCING OR PREVENTING OXIDATION OF LDL OR LIPID MEMBRANES IN A SUBJECT IN NEED THEREOF” (Amarin Pharmaceuticals Ireland Limited, priority 2018, published 2019)
